Data from ChEMBL document CHEMBL1955845, “Antiviral effect of geraniin on human enterovirus 71 in vitro and in vivo” (Bioorg Med Chem Lett, 2012).
Values after ≈ are worked out from the molar mass of the structure shown. Active and inactive are the calls of the source. No cut-off for these calls is given here.

Experiments:
[1] = Selectivity index, ratio of CC50 for human RD cells to IC50 for C4 type Human enterovirus 71 FY0805; assay type: functional
[2] = test system: Enterovirus A71; assay: Antiviral activity against C4 type Human enterovirus 71 MP10 infected in ICR mouse assessed as increase in survival rate at 0.4 mg/kg, ip administered 2 hrs post infection qd for 7 days measured up to 14 days; assay type: functional; settings: route intraperitoneal
[3] = test system: Enterovirus A71; assay: Antiviral activity against C4 type Human enterovirus 71 MP10 infected in ICR mouse assessed as delay in paralysis at 0.4 mg/kg, ip administered 2 hrs post infection qd for 7 days measured up to 14 days; assay type: functional, organism-based; design: dose 0.4 mg/kg
[4] = test system: Enterovirus A71; assay: Antiviral activity against C4 type Human enterovirus 71 MP10 infected in ICR mouse assessed as increase in survival rate at 1 mg/kg, ip administered 2 hrs post infection qd for 7 days measured up to 14 days; assay type: functional; settings: route intraperitoneal
[5] = test system: Enterovirus A71; assay: Antiviral activity against C4 type Human enterovirus 71 MP10 infected in ICR mouse assessed as disappearance of ruffled hair at 0.4 mg/kg, ip administered 2 hrs post infection qd for 7 days measured up to 14 days; assay type: functional, organism-based; design: dose 0.4 mg/kg
[6] = test system: Enterovirus A71; assay: Antiviral activity against C4 type Human enterovirus 71 MP10 infected in ICR mouse assessed as recovery at 0.4 mg/kg, ip administered 2 hrs post infection qd for 7 days measured up to 14 days; assay type: functional, organism-based; design: dose 0.4 mg/kg
[7] = Cytotoxicity against human RD cells; assay type: cell-based
[8] = test system: Enterovirus A71; assay: Antiviral activity against C4 type Human enterovirus 71 FY0805 infected in human RD cells assessed as inhibition of […] at 20 ug/ml treated 2 hrs post infection measured after 32 to 72 hrs by qRT-PCR analysis relative to control; assay type: functional, organism-based
[9] = test system: Enterovirus A71; assay: Antiviral activity against C4 type Human enterovirus 71 FY0805 infected in human RD cells assessed as inhibition of viral replication by plaque reduction assay; assay type: functional, organism-based; settings: Enterovirus A
[10] = test system: Enterovirus A71; assay: Antiviral activity against C4 type Human enterovirus 71 MP10 infected in ICR mouse assessed as inhibition of viral replication in muscle at 0.4 mg/kg, ip administered 2 hrs post infection qd for 7 days measured up to 7 days by qRT-PCR analysis; assay type: functional, organism-based; design: dose 0.4 mg/kg; settings: Muscle tissue
[11] = test system: Enterovirus A71; assay: Antiviral activity against C4 type Human enterovirus 71 MP10 infected in ICR mouse assessed as delay in appearance of infection symptoms at 0.4 mg/kg, ip administered 2 hrs post infection qd for 7 days measured up to 14 days; assay type: functional, organism-based; design: dose 0.4 mg/kg
[12] = test system: Mus musculus; assay: Toxicity in Human enterovirus 71 MP10 infected ICR mouse at 0.4 to 1 mg/kg, ip qd for 7 days measured up to 14 days; assay type: organism-based; design: dose 0.4-1 mg/kg, route intraperitoneal; settings: in vivo
[13] = test system: Enterovirus A71; assay: Antiviral activity against C4 type Human enterovirus 71 FY0805 infected in human RD cells assessed as inhibition of infectious virus yeild at 20 ug/ml treated 2 hrs post infection measured after 32 to 72 hrs by TCID50 assay relative to control; assay type: functional, organism-based
[14] = test system: Enterovirus A71; assay: Antiviral activity against Human enterovirus 71 infected in mouse assessed as increase in survival rate; assay type: functional
[15] = test system: Enterovirus A71; assay: Antiviral activity against C4 type Human enterovirus 71 MP10 infected in ICR mouse assessed as increase in survival rate at 50 mg/kg, ip administered 2 hrs post infection qd for 7 days measured up to 14 days; assay type: functional; settings: route intraperitoneal

| SMILES | Ratio CC50/IC50 [1] | Activity [2] [%] | Activity [3] | Activity [4] [%] | Activity [5] | Activity [6] | CC50 [7] [mg/L] | inhibition [8] | IC50 [9] [mg/L] | inhibition [10] | Activity [11] | Activity [12] | inhibition [13] | Activity [14] [%] | Activity [15] [%] |
| --- | --- | --- | --- | --- | --- | --- | --- | --- | --- | --- | --- | --- | --- | --- | --- |
| O=C1O[C@H]2[C@@H]3OC(=O)c4cc(O)c(O)c(O)c4-c4c(cc(O)c(O)c4O)C(=O)OC[C@H]2O[C@@H](OC(=O)c2cc(O)c(O)c(O)c2)[C@@H]3OC(=O)c2cc(O)c(O)c3c2[C@@H]2C1=CC(=O)[C@](O)(O3)C2(O)O [GERANIIN] | 20 | 35 | Active | 40 | Active | Active | 200 (≈ 210 µM) | Active | 10 (≈ 10.5 µM) | Active | Active | Non-toxic | Active | – | – |
| O[C@H]1[C@H]2c3cc4c(cc3CN3CCC(=C[C@@H]1O)[C@H]23)OCO4 [LYCORINE] | – | – | – | – | – | – | – | – | – | – | – | – | – | 18 | – |
| NC(=O)c1ncn([C@@H]2O[C@H](CO)[C@@H](O)[C@H]2O)n1 [RIBAVIRIN] | – | – | – | – | – | – | – | – | 60 (≈ 246 µM) | – | – | – | – | – | 5 |
